For the data set the following is noted: a range is the spread between reports.

For 138 compounds, melting point results are on record in a melting point compilation (Tetko et al.).

Structures are written as SMILES.

In turn, `NS(=O)(=O)c1ccccc1` registered a melting point of 151 to 153 °C.
The value for `OCC(F)F` was -28.2 to -28 °C.
On to `CCCCCCCCCCCCCCCO`, for which the melting point fell in the range of 45.5 to 46 °C.
Compound `O=C(O)c1cc(Cl)ccc1[N+](=O)[O-]` gave a melting point of 138 to 139 °C.
Consider `O=C(Cl)CCc1ccccc1`, for which the melting point is -7 to -2 °C.
As for `CCN(CC)C(=S)SSC(=S)N(CC)CC`, the melting point fell in the range of 70 to 71.5 °C.
The value for `COc1cccc(CC(=O)O)c1` was 70 to 72 °C; that for `CC1(C)NC(=O)NC1=O` was 176 to 178 °C; that for `CC(C)C#N` was -72 to -71.5 °C.
`Oc1cc(Cl)cc(Cl)c1` had a melting point of 66 to 68 °C.
As to `COCCOC(C)=O`, the melting point was -65.1 to -65 °C.
In turn, `CCC(S)CC` yielded a melting point of -111 °C.
The value for `O=Cc1ccco1` was -38.1 to -36 °C; that for `CCC(C)(C)C` was -100 to -99 °C; that for `C#CC(C)C` was -90 to -89.7 °C.
The value for `Oc1c(Cl)cccc1Cl` was 65 to 68.5 °C; that for `CCC(C)(C)C(=O)OC1CC(C)C=C2C=CC(C)C(CCC3CC(O)CC(=O)O3)C21` (stereo not drawn) was 136 °C; that for `CN(C)c1ccc(C=Nc2ccccc2)cc1` was 96 to 100 °C.
Compound `O=C(O)COc1ccc(F)cc1` registered a melting point of 104 to 105 °C.
On to `Oc1ccc(C(c2ccc(O)cc2)(C(F)(F)F)C(F)(F)F)cc1`, for which the melting point was in the range of 160 to 162 °C.
`COC(=O)c1cccc([N+](=O)[O-])c1` showed a melting point of 78 to 80 °C.
`O=S(=O)(Cl)c1ccc(Br)cc1` registered a melting point of 75 to 76 °C.
The value for `Nc1ccc(C(=O)O)cc1` was 188 to 189 °C.
The value for `CC(F)(F)Cl` was -131 °C; that for `O=[N+]([O-])c1ccccc1` was 5 to 6 °C; that for `Oc1ccncc1` was 145 to 150 °C.
The value for `OCC(O)C(O)CO` (stereo not drawn) was 122 °C; that for `O=C(c1ccc(Br)cc1)c1ccc(Br)cc1` was 174 to 177 °C.
The compound `NC(=O)c1ccc(N)cc1` yielded a melting point of 182 to 183 °C.
The value for `CCCCCCCCCCCCCC=O` was 20.5 to 24 °C.
Regarding `Cc1cccc(N)c1C`, the melting point was 2 to 3 °C.
In turn, `CC=C1CCCC1` gave a melting point of -130 °C.
In turn, `O=C1OCc2ccccc21` displayed a melting point of 74 to 75 °C.
The value for `CN(C)c1ccccc1` was 2 to 3 °C; that for `O=C(O)c1ccnc2ccccc12` was 254 °C.
The value for `CCCC(N)C(=O)O` (racemic) was 303 to 307 °C; that for `COP(=S)(OC)Oc1ccc(SC)c(C)c1` was 7 to 7.5 °C; that for `Cc1ccc([N+](=O)[O-])cc1N` was 106 to 108 °C.
The value for `O=C(n1ccnc1)n1ccnc1` was 118 to 119 °C; that for `COc1ccc(C=O)c2ccccc12` was 34 to 34.8 °C; that for `O=[N+]([O-])c1ccccc1-c1ccccc1` was 37 to 37.2 °C.
Regarding `Clc1cc(Cl)cc(I)c1`, the melting point lay within 56 to 57 °C.
The compound `CC(=O)c1ccc(O)cc1` registered a melting point of 107 to 110 °C.
The value for `Cc1cc([N+](=O)[O-])ccc1Cl` was 42.5 to 43 °C; that for `COc1cc(Cl)ccc1O` was 16.5 to 17 °C.
`COc1ccc(-c2cc(=O)c3c(O)c(OC)c(O)cc3o2)cc1` displayed a melting point of 221 to 225 °C.
Take `N#CI`: the melting point fell in the range of 146 to 147 °C.
On to `C=COCC`, for which the melting point was -116 to -115 °C.
The value for `CC=C(C)C` was -134 °C; that for `OCCCCCO` was -18 to -16 °C.
In turn, `NNc1c(F)c(F)c(F)c(F)c1F` returned a melting point of 75 to 76 °C.
Turning to `CC(=O)N[C@@H](Cc1ccc(O)cc1)C(=O)O`, the melting point was 149 to 153 °C.
The value for `CNCCO` was -5 to -4.5 °C; that for `Cc1cc(C)cc(N)c1` was 9.8 to 10 °C; that for `O=C(O)c1ccc(O)cc1` was 214 to 217 °C.
`O=C(OCc1ccccc1)c1ccccc1` came in with a melting point of 18 to 21 °C.
The value for `O=C(O)c1cccc([N+](=O)[O-])c1Cl` was 181 to 184 °C; that for `Nc1ccc([N+](=O)[O-])cc1` was 146 to 150 °C.
The value for `c1ccc2cc(-c3ccc4ccccc4c3)ccc2c1` was 187 to 188 °C; that for `CCOc1ccc(CC(=O)O)cc1` was 88.5 to 89 °C; that for `Oc1ccc(Br)cc1Cl` was 49 to 50.5 °C.
As for `c1cc2ccc3ccc4ccc5ccc6ccc1c1c2c3c4c5c61`, the melting point fell in the range of 437 to 440 °C.
The value for `c1ccc2nc(-c3ccc4ccccc4n3)ccc2c1` was 194 to 195 °C; that for `Cc1ccc(-c2ccccc2)cc1` was 46 to 49.5 °C; that for `CC(C)(C)c1ccc2oc(-c3ccc(-c4nc5cc(C(C)(C)C)ccc5o4)s3)nc2c1` was 199 to 201 °C.
`CC(=O)Nc1nnc(S(N)(=O)=O)s1` returned a melting point of 258 to 260 °C.
The value for `Cn1nnc2ccccc21` was 64.5 to 65 °C; that for `CCN(CC)c1ccccc1` was -38.8 to -38 °C; that for `Clc1cccc(-c2ccccc2)c1` was 16 to 18 °C.
`C=CCCCCCCCCCCCCCCCC` displayed a melting point of 16 to 18 °C.
As to `O=C(CCl)CCl`, the melting point was in the range of 44 to 45 °C.
On to `CCc1ccccc1`, for which the melting point was -95 to -94.9 °C.
The value for `O=C1c2ccccc2C(=O)N1CCCBr` was 74 to 75 °C; that for `CCCCCCCCCCCC(C)O` (stereo not drawn) was 23 to 25 °C; that for `CC(Cl)C(Cl)(Cl)Cl` (stereo not drawn) was -65 to -64 °C.
The value for `BrCCCCOc1ccccc1` was 41 to 42 °C.
The value for `c1ccc2c(c1)ccc1cc3c(ccc4ccccc43)cc12` was 266 to 270 °C; that for `Cc1ccccc1CCl` was -2 to 2 °C.
In turn, `CC12CCC(C(Br)C1=O)C2(C)C` (stereo not drawn) registered a melting point of 76 to 77 °C.
In the case of `OCCc1ccccn1`, the melting point is -8 to -7.8 °C.
The value for `C1COCCO1` was 11.8 to 12 °C.
In turn, `Fc1ccc(-c2ccccc2)cc1` came in with a melting point of 74 to 74.2 °C.
The value for `Oc1ccc(Sc2ccc(O)cc2)cc1` was 153 to 155 °C.
The value for `CC(=O)C1C(=O)C=C(C)OC1=O` (stereo not drawn) was 109 to 111 °C; that for `c1ccc(OCC2CO2)cc1` (stereo not drawn) was 3.5 to 4 °C; that for `Clc1ccccc1Br` was -13 to -12.3 °C.
The value for `OC1CCCCC1` was 21 to 25.9 °C; that for `Nc1cc(Cl)ccc1Cl` was 48 to 50 °C.
In the case of `CC1=NS(=O)(=O)c2cc(Cl)ccc2N1`, the melting point lay in the range of 327 to 330 °C.
The value for `CC(=O)Nc1ccc(Cl)cc1F` was 155 to 157 °C; that for `CCCCCl` was -123 °C.
In turn, `C=C(C#N)C(=O)OCC` gave a melting point of -22.5 to -22 °C.
`O=S(c1ccccc1)c1ccccc1`: the melting point lay within 70 to 71.2 °C.
The value for `Cc1ccc([N+](=O)[O-])c(F)c1` was 53 to 53.2 °C; that for `NC=O` was 2 to 2.55 °C.
The value for `C=CCCCCCCCCCCCCCCC` was 11 to 11.5 °C; that for `O=C(O)CCCCCCCC(=O)O` was 102 to 106 °C; that for `Clc1ncccn1` was 66 to 67 °C.
In turn, `O=Cc1ccc(Cl)cc1Cl` came in with a melting point of 71 to 73 °C.
The compound `Cc1ccc(N)c(N)c1` returned a melting point of 88 to 89.5 °C.
The compound `CC(=O)c1cc2ccccc2o1` registered a melting point of 71 to 76 °C.
For `O=C(O)c1ccc([N+](=O)[O-])c(O)c1`, the melting point fell in the range of 230 to 234 °C.
The value for `Nc1ccc(O)cc1` was 188 to 189 °C.
The value for `COC(=O)/C=C/C(=O)OC` was 102 to 104 °C; that for `CCCCCCC#N` was -64 to -63 °C; that for `CC=C(C)CCC` was -119 to -118 °C.
`CCC(O)(CC)CC` gave a melting point of -13 to -12.5 °C.
The value for `CC(C)c1ncc([N+](=O)[O-])n1C` was 60 to 61 °C.
The value for `Cc1c(N)cccc1[N+](=O)[O-]` was 90 to 92 °C.
With `CCNC(=S)NCC`, the melting point was 77 to 78 °C.
In turn, `ClCc1ccc(Cl)cc1Cl` returned a melting point of -3 to -2.6 °C.
The value for `Cc1cnccn1` was -30 to -29 °C.
Compound `BrCCCCCCCCBr` showed a melting point of 15.5 to 16 °C.
The value for `NCC1CCNCC1` was 24 to 25 °C.
In turn, `CC(C)N(CCC(C(N)=O)(c1ccccc1)c1ccccn1)C(C)C` (stereo not drawn) yielded a melting point of 94.8 °C.
The compound `CCCCCCCN` had a melting point of -23 to -18 °C.
The value for `CCCCP(=O)(CCCC)CCCC` was 64 to 67 °C; that for `COC(=O)C(=O)OC` was 52 to 54.3 °C.
Compound `CC(C)c1cccc(C(C)C)c1` registered a melting point of -63.1 to -63 °C.
The value for `COc1cccc([N+](=O)[O-])c1C` was 53 to 55 °C; that for `O=C(O)Cc1ccc(O)cc1` was 149 to 152 °C; that for `CS(C)=O` was 18 to 18.5 °C.
Take `COc1ccc(NC(C)=O)cc1`: the melting point was in the range of 127 to 131 °C.
Consider `CCCOC=O`, for which the melting point was -93 to -92.9 °C.
In turn, `Cc1cccc(O)c1O` registered a melting point of 65 to 68 °C.
The value for `CC(C)c1cc(C(C)C)cc(C(C)C)c1` was -7.4 to -7 °C; that for `O=[N+]([O-])c1ccc(Cl)c(Cl)c1` was 39 to 43 °C; that for `CCOC(=O)CC` was -73.9 to -73 °C.
In turn, `CCCCCCCCCCCCCCCCC` returned a melting point of 21 to 22 °C.
The value for `Cc1c(C2(c3cc(C(C)C)c(O)c(Br)c3C)OS(=O)(=O)c3ccccc32)cc(C(C)C)c(O)c1Br` was 200 to 201 °C.
The value for `Cc1ccc(S(=O)(=O)NC2CCCCC2)cc1` was 84.5 to 88 °C.
The value for `CCCCCCCI` was -48.2 to -48 °C; that for `c1ccc(-c2cnc(-c3ccc(-c4ncc(-c5ccccc5)o4)cc3)o2)cc1` was 242 to 245 °C.
Compound `NCCCCN` registered a melting point of 27 to 27.5 °C.
The value for `CCOC(=O)c1ccc([N+](=O)[O-])o1` was 100 to 101 °C; that for `CC(=O)CC(=O)Nc1ccccc1` was 85 to 86 °C; that for `Cc1ccc(Cl)c(Cl)c1` was -15.2 to -15 °C.
`COC(=O)c1ccc(C)cc1` had a melting point of 33.2 to 37 °C.
